Measurements published in patent US20260356830A1, “COMPOUNDS FOR MODULATING RET PROTEIN” (Bristol-Myers Squibb Company, priority 2022, published 2026).

Target: T1, CCDC6-RET (Homo sapiens, UniProt P07949+Q16204+Q96SW2)
T1 construct: CCDC6 (natural N-terminal fusion partner, UniProt Q16204); endogenous in cells; host or cells: TPC-1 (parental, papillary thyroid carcinoma)
Assay: Cellular RET degradation, AlphaLISA, TPC-1 cell line
Type: cell-based
Conditions: for Dmax: TPC1, human, 24 h, read-out: Cell Density TPC-1/CCDC6-RET Ymax %; for DC50: read-out: Cell Density TPC-1/CCDC6-RET DC50, half-maximal degradation concentration, TPC-1 (CCDC6-RET), 24 hrs
Description: Cellular RET degradation compound potency was determined using the bead-based luminescent amplification assay-AlphaLISA Surefire Ultra Detection Kit (Perkin-Elmer). The CCDC6-RET fusion expressing papillary thyroid carcinoma (TPC-1) cell line was selected for screening of potential degraders: Parental (TPC-1/CCDC6-RET). Cells were plated in 384 well culture plates (Greiner Bio-One) at 10,000 cells/well in 50 ul/well DMEM (Fisher Scientific) with 2% FBS serum (Gibco). […] Low normalization wells were media only and high normalization wells were cells treated with DMSO only. Treated cell plates were placed in an incubator at 37 °C and 5% CO2 for 24 hrs. At 24 hrs, cell media was removed by a FELIX automated liquid hander (Analytik Jena) and 25 ul of cell lysis buffer (provided in AlphaLisa kit) was added to each well. […] cell lysate were transferred into a 384-well microplate (Perkin Elmer) before addition of 2.5 ul AlphaLISA Acceptor Bead mix. The plates were sealed and kept at room temperature for 1 hr before addition of donor bead mixture. Donor bead addition was performed in the dark and incubated for >1 hr before AlphaLISA luminescence was measured on an Envision plate reader with an Alphascreen aperture at RT (excitation 680 nm, emission 615 nm). RET protein abundance (and therefore degradation) directly corresponds to luminescence intensity.
Intensities were normalized relative to the average values from 16 wells containing media alone (blank-low) and 16 wells containing cells +DMSO (high). % Degradation for each well was determined using the standard equation, where
DC50 (IC50) values for each compound tested are calculated by analyzing plots of % degradation versus compound concentration, and fitting to the standard 4-parameter logistic curve where,
DC50 values are calculated according to the relationship,
Compound replicates were performed in independent assays. Maximum degradation (YMax) was defined as the maximal % degradation value from the 4-parameter logistic equation, as previously described.

T1 sequence (Q16204+P07949 fused): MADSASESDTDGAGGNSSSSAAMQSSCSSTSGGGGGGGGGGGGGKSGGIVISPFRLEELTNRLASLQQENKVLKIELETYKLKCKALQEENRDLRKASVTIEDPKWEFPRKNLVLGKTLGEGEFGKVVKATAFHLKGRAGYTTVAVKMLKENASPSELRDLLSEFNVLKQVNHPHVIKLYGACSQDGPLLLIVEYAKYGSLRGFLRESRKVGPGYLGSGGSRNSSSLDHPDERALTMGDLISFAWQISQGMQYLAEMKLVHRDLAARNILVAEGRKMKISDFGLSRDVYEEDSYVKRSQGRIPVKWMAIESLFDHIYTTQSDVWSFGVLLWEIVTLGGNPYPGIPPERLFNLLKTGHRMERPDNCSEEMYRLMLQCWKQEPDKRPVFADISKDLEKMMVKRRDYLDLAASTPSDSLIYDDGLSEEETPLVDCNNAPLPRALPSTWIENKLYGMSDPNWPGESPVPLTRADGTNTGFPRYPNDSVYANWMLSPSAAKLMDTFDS
T1 sequence (Q96SW2 whole entry, the tested form may be a part): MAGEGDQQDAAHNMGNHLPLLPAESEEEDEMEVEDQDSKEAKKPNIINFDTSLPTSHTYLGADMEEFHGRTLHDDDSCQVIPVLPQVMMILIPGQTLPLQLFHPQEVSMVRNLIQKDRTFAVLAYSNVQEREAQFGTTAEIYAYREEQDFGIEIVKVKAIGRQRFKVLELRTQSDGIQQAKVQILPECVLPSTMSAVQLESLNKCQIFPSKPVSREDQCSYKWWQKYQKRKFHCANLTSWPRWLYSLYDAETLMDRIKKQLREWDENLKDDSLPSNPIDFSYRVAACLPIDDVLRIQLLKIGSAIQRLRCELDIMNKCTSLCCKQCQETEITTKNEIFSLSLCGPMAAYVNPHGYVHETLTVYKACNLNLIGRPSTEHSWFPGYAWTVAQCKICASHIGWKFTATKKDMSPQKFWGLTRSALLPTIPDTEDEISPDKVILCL
T1 sequence (Q16531 whole entry partner, the tested form may be a part): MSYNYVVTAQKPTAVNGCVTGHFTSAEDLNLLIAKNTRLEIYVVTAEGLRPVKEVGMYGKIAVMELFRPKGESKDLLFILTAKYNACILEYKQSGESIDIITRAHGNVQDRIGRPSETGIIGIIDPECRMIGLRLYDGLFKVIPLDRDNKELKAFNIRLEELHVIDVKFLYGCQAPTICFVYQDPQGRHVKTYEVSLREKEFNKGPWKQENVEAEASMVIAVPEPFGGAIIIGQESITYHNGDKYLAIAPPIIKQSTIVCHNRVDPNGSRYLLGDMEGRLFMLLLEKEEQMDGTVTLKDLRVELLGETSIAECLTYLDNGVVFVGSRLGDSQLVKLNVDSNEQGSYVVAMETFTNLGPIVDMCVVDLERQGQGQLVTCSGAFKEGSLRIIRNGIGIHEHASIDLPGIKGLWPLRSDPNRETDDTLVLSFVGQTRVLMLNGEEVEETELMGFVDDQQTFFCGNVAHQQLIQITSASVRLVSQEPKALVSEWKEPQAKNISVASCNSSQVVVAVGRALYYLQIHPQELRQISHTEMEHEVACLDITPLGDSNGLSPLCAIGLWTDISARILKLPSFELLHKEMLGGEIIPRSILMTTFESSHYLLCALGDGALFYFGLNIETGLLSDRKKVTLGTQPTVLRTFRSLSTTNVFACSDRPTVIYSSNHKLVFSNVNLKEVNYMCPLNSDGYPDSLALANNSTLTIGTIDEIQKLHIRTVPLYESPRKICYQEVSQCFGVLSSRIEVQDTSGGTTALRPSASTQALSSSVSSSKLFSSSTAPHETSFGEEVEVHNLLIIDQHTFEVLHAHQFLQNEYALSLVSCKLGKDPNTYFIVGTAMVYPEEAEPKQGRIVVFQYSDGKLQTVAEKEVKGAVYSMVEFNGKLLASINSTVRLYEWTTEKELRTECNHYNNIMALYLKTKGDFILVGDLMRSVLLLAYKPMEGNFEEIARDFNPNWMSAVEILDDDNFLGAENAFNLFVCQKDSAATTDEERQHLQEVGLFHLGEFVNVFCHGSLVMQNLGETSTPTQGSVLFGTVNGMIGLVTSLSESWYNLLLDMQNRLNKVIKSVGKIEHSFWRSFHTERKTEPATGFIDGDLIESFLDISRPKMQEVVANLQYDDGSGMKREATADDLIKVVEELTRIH

Dmax	DC50	SMILES
> 90%	2 to 10 nM	CCOc1cc(-c2ccc(N3CCC(CN4CCN(C(=O)CCCCN5CCN(c6ccc7c(N8CCC(=O)NC8=O)nn(C)c7c6)CC5)CC4)(NC(=O)c4cc(F)ccc4F)CC3)nc2)c2c(C#N)cnn2c1 [Example 40, N-(1-(5-(3-cyano-6-ethoxypyrazolo[1,5-a]pyridin-4-yl)pyridin-2-yl)-4-((4-(5-(4-(3-(2,4-dioxotetrahydropyrimidin-1(2H)-yl)-1-methyl-1H-indazol-6-yl)piperazin-1-yl)pentanoyl)piperazin-1-yl)methyl)piperidin-4-yl)-2,5-difluorobenzamide]
> 90%	< 2 nM	CCOc1cc(-c2ccc(N3CCC(CN4CCN(C(=O)CCCCCCN5CCN(c6ccc7c(N8CCC(=O)NC8=O)nn(C)c7c6)CC5)CC4)(NC(=O)c4cc(F)ccc4F)CC3)nc2)c2c(C#N)cnn2c1 [Example 41, N-(1-(5-(3-cyano-6-ethoxypyrazolo[1,5-a]pyridin-4-yl)pyridin-2-yl)-4-((4-(7-(4-(3-(2,4-dioxotetrahydropyrimidin-1(2H)-yl)-1-methyl-1H-indazol-6-yl)piperazin-1-yl)heptanoyl)piperazin-1-yl)methyl)piperidin-4-yl)-2,5-difluorobenzamide]
	< 2 nM	CCOc1cc(-c2ccc(N3CCC(CN4CCN(C(=O)CCCCCN5CCC(c6ccc7c(N8CCC(=O)NC8=O)nn(C)c7c6)CC5)CC4)(NC(=O)c4cc(F)ccc4F)CC3)nc2)c2c(C#N)cnn2c1 [Example 42, N-(1-(5-(3-cyano-6-ethoxypyrazolo[1,5-a]pyridin-4-yl)pyridin-2-yl)-4-((4-(6-(4-(3-(2,4-dioxotetrahydropyrimidin-1(2H)-yl)-1-methyl-1H-indazol-6-yl)piperidin-1-yl)hexanoyl)piperazin-1-yl)methyl)piperidin-4-yl)-2,5-difluorobenzamide]
> 90%	< 2 nM	CCOc1cc(-c2ccc(N3CCC(CN4CCN(C(=O)CCCN5CCN(c6ccc7c(N8CCC(=O)NC8=O)nn(C)c7c6)CC5)CC4)(NC(=O)c4cc(F)ccc4F)CC3)nc2)c2c(C#N)cnn2c1 [Example 43, N-(1-(5-(3-cyano-6-ethoxypyrazolo[1,5-a]pyridin-4-yl)pyridin-2-yl)-4-((4-(4-(4-(3-(2,4-dioxotetrahydropyrimidin-1(2H)-yl)-1-methyl-1H-indazol-6-yl)piperazin-1-yl)butanoyl)piperazin-1-yl)methyl)piperidin-4-yl)-2,5-difluorobenzamide]
60 to 90%	< 2 nM	CCOc1cc(-c2ccc(N3CCC(CN4CCN(C(=O)CN5CCC(c6ccc7c(N8CCC(=O)NC8=O)nn(C)c7c6)CC5)CC4)(NC(=O)c4cc(F)ccc4F)CC3)nc2)c2c(C#N)cnn2c1 [Example 44, N-(1-(5-(3-cyano-6-ethoxypyrazolo[1,5-a]pyridin-4-yl)pyridin-2-yl)-4-((4-(2-(4-(3-(2,4-dioxotetrahydropyrimidin-1(2H)-yl)-1-methyl-1H-indazol-6-yl)piperidin-1-yl)acetyl)piperazin-1-yl)methyl)piperidin-4-yl)-2,5-difluorobenzamide]
> 90%	2 to 10 nM	CCOc1cc(-c2ccc(N3CCC(COCc4cn(CCCCCCN5CCN(c6ccc7c(c6)CN(C6CCC(=O)NC6=O)C7=O)CC5)nn4)(NC(=O)c4cc(F)ccc4F)CC3)nc2)c2c(C#N)cnn2c1 (centres unmarked) [Example 47, N-[1-[5-(3-cyano-6-ethoxy-pyrazolo[1,5-a]pyridin-4-yl)-2-pyridyl]-4-[[1-[6-[4-[2-(2,6-dioxo-3-piperidyl)-1-oxo-isoindolin-5-yl]piperazin-1-yl]hexyl]triazol-4-yl]methoxymethyl]-4-piperidyl]-2,5-difluoro-benzamide]
> 90%	2 to 10 nM	CCOc1cc(-c2ccc(N3CCC(COCc4cn(CCCCN5CCN(c6ccc7c(c6)CN(C6CCC(=O)NC6=O)C7=O)CC5)nn4)(NC(=O)c4cc(F)ccc4F)CC3)nc2)c2c(C#N)cnn2c1 (centres unmarked) [Example 48, N-[1-[5-(3-cyano-6-ethoxy-pyrazolo[1,5-a]pyridin-4-yl)-2-pyridyl]-4-[[1-[4-[4-[2-(2,6-dioxo-3-piperidyl)-1-oxo-isoindolin-5-yl]piperazin-1-yl]butyl]triazol-4-yl]methoxymethyl]-4-piperidyl]-2,5-difluoro-benzamide]
> 90%	2 to 10 nM	CCOc1cc(-c2ccc(N3CCC(COCc4cn(CCN5CCN(c6ccc7c(c6)CN(C6CCC(=O)NC6=O)C7=O)CC5)nn4)(NC(=O)c4cc(F)ccc4F)CC3)nc2)c2c(C#N)cnn2c1 (centres unmarked) [Example 49, N-[1-[5-(3-cyano-6-ethoxy-pyrazolo[1,5-a]pyridin-4-yl)-2-pyridyl]-4-[[1-[2-[4-[2-(2,6-dioxo-3-piperidyl)-1-oxo-isoindolin-5-yl]piperazin-1-yl]ethyl]triazol-4-yl]methoxymethyl]-4-piperidyl]-2,5-difluoro-benzamide]
60 to 90%	2 to 10 nM	CCOc1cc(-c2ccc(N3CCC(COCc4cn(CCCN5CCN(c6ccc7c(c6)CN(C6CCC(=O)NC6=O)C7=O)CC5)nn4)(NC(=O)c4cc(F)ccc4F)CC3)nc2)c2c(C#N)cnn2c1 (centres unmarked) [Example 50, N-(1-(5-(3-cyano-6-ethoxypyrazolo[1,5-a]pyridin-4-yl)pyridin-2-yl)-4-(((1-(3-(4-(2-(2,6-dioxopiperidin-3-yl)-1-oxoisoindolin-5-yl)piperazin-1-yl)propyl)-1H-1,2,3-triazol-4-yl)methoxy)methyl)piperidin-4-yl)-2,5-difluorobenzamide]
60 to 90%	10 to 100 nM	CCOc1cc(-c2ccc(N3CCC(Cc4ccccc4)(NC(=O)N4CCN(C(=O)CCN5CCC(c6ccc7c(c6)C(=O)N(C6CCC(=O)NC6=O)C7)CC5)CC4)CC3)nc2)c2c(C#N)cnn2c1 (centres unmarked) [Example 51, N-[4-benzyl-1-[5-(3-cyano-6-ethoxy-pyrazolo[1,5-a]pyridin-4-yl)-2-pyridyl]-4-piperidyl]-4-[3-[4-[2-(2,6-dioxo-3-piperidyl)-3-oxo-isoindolin-5-yl]-1-piperidyl]propanoyl]piperazine-1-carboxamide]
> 90%	2 to 10 nM	CCOc1cc(-c2ccc(N3CCC(Cc4ccccc4)(NC(=O)C4CCN(C(=O)CCN5CCC(c6ccc7c(c6)C(=O)N(C6CCC(=O)NC6=O)C7)CC5)CC4)CC3)nc2)c2c(C#N)cnn2c1 (centres unmarked) [Example 52, N-[4-benzyl-1-[5-(3-cyano-6-ethoxy-pyrazolo[1,5-a]pyridin-4-yl)-2-pyridyl]-4-piperidyl]-1-[3-[4-[2-(2,6-dioxo-3-piperidyl)-3-oxo-isoindolin-5-yl]-1-piperidyl]propanoyl]piperidine-4-carboxamide]
60 to 90%	10 to 100 nM	CCOc1cc(-c2ccc(N3CCC(Cc4ccccc4)(NC(=O)CN4CCN(C(=O)CCN5CCC(c6ccc7c(c6)C(=O)N(C6CCC(=O)NC6=O)C7)CC5)CC4)CC3)nc2)c2c(C#N)cnn2c1 (centres unmarked) [Example 53, N-[4-benzyl-1-[5-(3-cyano-6-ethoxy-pyrazolo[1,5-a]pyridin-4-yl)-2-pyridyl]-4-piperidyl]-2-[4-[3-[4-[2-(2,6-dioxo-3-piperidyl)-3-oxo-isoindolin-5-yl]-1-piperidyl]propanoyl]piperazin-1-yl]acetamide]
60 to 90%	100 to 2000 nM	CCOc1cc(-c2ccc(N3CCC(Cc4ccccc4)(NC(=O)CC4CCN(C(=O)CCN5CCC(c6ccc7c(c6)C(=O)N(C6CCC(=O)NC6=O)C7)CC5)CC4)CC3)nc2)c2c(C#N)cnn2c1 (centres unmarked) [Example 54, N-[4-benzyl-1-[5-(3-cyano-6-ethoxy-pyrazolo[1,5-a]pyridin-4-yl)-2-pyridyl]-4-piperidyl]-2-[1-[3-[4-[2-(2,6-dioxo-3-piperidyl)-3-oxo-isoindolin-5-yl]-1-piperidyl]propanoyl]-4-piperidyl]acetamide]
60 to 90%	2 to 10 nM	CCOc1cc(-c2ccc(N3CCC(Cc4ccccc4)(NC(=O)N4CCC(CN5CCC(c6ccc7c(c6)C(=O)N(C6CCC(=O)NC6=O)C7)CC5)CC4)CC3)nc2)c2c(C#N)cnn2c1 (centres unmarked) [Example 55]
60 to 90%	2 to 10 nM	CCOc1cc(-c2ccc(N3CCC(Cc4ccccc4)(NC(=O)N4CCC(N5CCC(c6ccc7c(c6)C(=O)N(C6CCC(=O)NC6=O)C7)CC5)CC4)CC3)nc2)c2c(C#N)cnn2c1 (centres unmarked) [Example 56, N-[4-benzyl-1-[5-(3-cyano-6-ethoxy-pyrazolo[1,5-a]pyridin-4-yl)-2-pyridyl]-4-piperidyl]-4-[4-[2-(2,6-dioxo-3-piperidyl)-3-oxo-isoindolin-5-yl]-1-piperidyl]piperidine-1-carboxamide]
